Test system: NCI-H929 complex spheroids, viability % test/control
Assay: Anticancer human tumor NCI-H929 cell line growth inhibition [RAS];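 also: compound exposure lasted seven days before viability was read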;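 as to viability, T/C: 100% = DMSO vehicle control viability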
Settings: for IC50: curve of first compound; for viability, T/C: stronger effect = lower value
Summary of the method: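 Multi-cell-type spheroids: tumor cells plus HUVEC endothelial cells and mesenchymal stem cells. RAS-pathway inhibitors were combined with targeted agents, each dosed in half-log steps down from clinical Cmax, or from 10 microM when Cmax was unknown.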

[1] = second compound 0.000949 µM, first compound 0.0316 µM
[2] = second compound 0.000949 µM, first compound 0.1 µM
[3] = second compound 0.000949 µM, first compound 0.316 µM
[4] = second compound 0.000949 µM, first compound 1 µM
[5] = second compound 0.003 µM, first compound 0.0316 µM
[6] = second compound 0.003 µM, first compound 0.1 µM
[7] = second compound 0.003 µM, first compound 0.316 µM
[8] = second compound 0.003 µM, first compound 1 µM
[9] = second compound 0.00949 µM, first compound 0.0316 µM
[10] = second compound 0.00949 µM, first compound 0.1 µM
[11] = second compound 0.00949 µM, first compound 0.316 µM
[12] = second compound 0.00949 µM, first compound 1 µM
[13] = second compound 0.03 µM, first compound 0.0316 µM
[14] = second compound 0.03 µM, first compound 0.1 µM
[15] = second compound 0.03 µM, first compound 0.316 µM
[16] = second compound 0.03 µM, first compound 1 µM
[17] = second compound 0.0949 µM, first compound 0.0316 µM
[18] = second compound 0.0949 µM, first compound 0.1 µM
[19] = second compound 0.0949 µM, first compound 0.316 µM
[20] = second compound 0.0949 µM, first compound 1 µM
[21] = second compound 0.3 µM, first compound 0.0316 µM
[22] = second compound 0.3 µM, first compound 0.1 µM
[23] = second compound 0.3 µM, first compound 0.316 µM
[24] = second compound 0.3 µM, first compound 1 µM

CC(C)NCC(C(=O)N1CCN(c2ncnc3c2C(C)CC3O)CC1)c1ccc(Cl)cc1 (centres undefined) + CCn1c(-c2cccnc2C(C)OC)c2c3cc(ccc31)N1CCOC(CC(NC(=O)C(C(C)C)N(C)C(=O)C3(F)CCN(C(=O)C#CC(C)(C)N(C)C)CC3)C(=O)N3CCCC(N3)C(=O)OCC(C)(C)C2)C1
IC50 (second compound 0.000949 µM): 1310 nM | IC50 (second compound 0.003 µM): 1430 nM | IC50 (second compound 0.00949 µM): 1640 nM | IC50 (second compound 0.03 µM): 1450 nM | IC50 (second compound 0.0949 µM): 1200 nM | IC50 (second compound 0.3 µM): 986 nM | viability, T/C [1]: 106% | viability, T/C [2]: 96.4% | viability, T/C [3]: 98.7% | viability, T/C [4]: 59.4% | viability, T/C (second compound 0.000949 µM, first compound 3.16 µM): 16.5% | viability, T/C (second compound 0.000949 µM, first compound 10 µM): 2.67% | viability, T/C [5]: 99.5% | viability, T/C [6]: 101% | viability, T/C [7]: 95% | viability, T/C [8]: 65.4% | viability, T/C (second compound 0.003 µM, first compound 3.16 µM): 15.5% | viability, T/C (second compound 0.003 µM, first compound 10 µM): 2.08% | viability, T/C [9]: 98.6% | viability, T/C [10]: 97% | viability, T/C [11]: 99% | viability, T/C [12]: 68.7% | viability, T/C (second compound 0.00949 µM, first compound 3.16 µM): 23.8% | viability, T/C (second compound 0.00949 µM, first compound 10 µM): 2.36% | viability, T/C [13]: 101% | viability, T/C [14]: 100% | viability, T/C [15]: 98.5% | viability, T/C [16]: 67.7% | viability, T/C (second compound 0.03 µM, first compound 3.16 µM): 12.6% | viability, T/C (second compound 0.03 µM, first compound 10 µM): 1.6% | viability, T/C [17]: 101% | viability, T/C [18]: 102% | viability, T/C [19]: 97.4% | viability, T/C [20]: 57.4% | viability, T/C (second compound 0.0949 µM, first compound 3.16 µM): 9.37% | viability, T/C (second compound 0.0949 µM, first compound 10 µM): 1.65% | viability, T/C [21]: 103% | viability, T/C [22]: 103% | viability, T/C [23]: 95.1% | viability, T/C [24]: 49.6% | viability, T/C (second compound 0.3 µM, first compound 3.16 µM): 6.6% | viability, T/C (second compound 0.3 µM, first compound 10 µM): 1.34%

CCN1CCN(Cc2ccc(Nc3ncc(F)c(-c4cc(F)c5nc(C)n(C(C)C)c5c4)n3)nc2)CC1 + CCn1c(-c2cc(N3CCN(C)CC3)cnc2C(C)OC)c2c3cc(ccc31)-c1csc(n1)CC(NC(=O)C1CC1C)C(=O)N1CCCC(N1)C(=O)OCC(C)(C)C2
IC50 (second compound 0.000949 µM): 789 nM | IC50 (second compound 0.003 µM): 725 nM | IC50 (second compound 0.00949 µM): 642 nM | IC50 (second compound 0.03 µM): 134 nM | IC50 (second compound 0.0949 µM): < 3.16 nM | IC50 (second compound 0.3 µM): < 3.16 nM | viability, T/C (second compound 0.000949 µM, first compound 0.00316 µM): 104% | viability, T/C (second compound 0.000949 µM, first compound 0.01 µM): 98.4% | viability, T/C [1]: 110% | viability, T/C [2]: 107% | viability, T/C [3]: 114% | viability, T/C [4]: 35.1% | viability, T/C (second compound 0.003 µM, first compound 0.00316 µM): 98.3% | viability, T/C (second compound 0.003 µM, first compound 0.01 µM): 105% | viability, T/C [5]: 108% | viability, T/C [6]: 113% | viability, T/C [7]: 114% | viability, T/C [8]: 27.8% | viability, T/C (second compound 0.00949 µM, first compound 0.00316 µM): 109% | viability, T/C (second compound 0.00949 µM, first compound 0.01 µM): 116% | viability, T/C [9]: 120% | viability, T/C [10]: 125% | viability, T/C [11]: 122% | viability, T/C [12]: 7.19% | viability, T/C (second compound 0.03 µM, first compound 0.00316 µM): 81.7% | viability, T/C (second compound 0.03 µM, first compound 0.01 µM): 80.5% | viability, T/C [13]: 76.6% | viability, T/C [14]: 55.4% | viability, T/C [15]: 29.2% | viability, T/C [16]: 1.2% | viability, T/C (second compound 0.0949 µM, first compound 0.00316 µM): 9.23% | viability, T/C (second compound 0.0949 µM, first compound 0.01 µM): 8.26% | viability, T/C [17]: 6.56% | viability, T/C [18]: 4.66% | viability, T/C [19]: 2.4% | viability, T/C [20]: 0.89% | viability, T/C (second compound 0.3 µM, first compound 0.00316 µM): 4.35% | viability, T/C (second compound 0.3 µM, first compound 0.01 µM): 4.24% | viability, T/C [21]: 2.73% | viability, T/C [22]: 2.03% | viability, T/C [23]: 1.42% | viability, T/C [24]: 0.89%

From PubChem BioAssay AID2060884 (Molecular Pharmacology Branch, DTP, NCI, 2025)
